Experimental findings from patent US20250075041A1, “COMPOSITIONS FOR SALTWATER-STABLE HYDROGEL ADHESIVES AND METHODS OF USE THEREOF” (Washington University, priority 2023, published 2025) are described below.

A short description of the series: Solubility of copolymers and monomer. Type of series: physicochemical.

On to Nb-TEG-ZnTPP [compound 22], for which the “solubility in H2O” value was “not soluble in H2O”.
